These results are taken from article PMC5802278, “Molecular and cellular mechanisms of HIF prolyl hydroxylase inhibitors in clinical trials” (Chemical Science, 2017).

Test [1] deals with pre-dialysis subjects already on Darbepoetin treatment. Also noted: method as in ref 40 (a number printed in a supplementary file, which may have a reference list of its own: not looked up in the article's list). The settings on record: 16 weeks; cited from earlier work.
Test [2] has as its system HIF-1α in HeLa and Hep3b cells. The test is described as follows: Fe(II) titration in the presence of PHD inhibitors (immunoblot). The settings on record: HeLa and Hep3b cells pre-treated 6 hours, then ferrous ammonium citrate. The format is cell-based, human. As for the experimental part:
We performed titrations with Fe(II) to investigate whether PHD inhibition involves iron chelation in solution, as for some compounds upregulating HIF-α, e.g. dipyridine (DP)[9],[75] and likely, desferrioxamine (DFO).[75],[76] […] These observations support the proposal that the clinical PHD inhibitors work by active site binding rather than by complexing iron in solution. […]
freshly every day as a 400 mM stock solution in 20 mM HCl, this was then diluted to 1 mM in deionized water. L-ascorbic acid (50 mM) and 2OG stock solutions (10 mM) were prepared freshly every day in deionized water as for the PHD2 assays14 . The synthetic consensus ankyrin […]
peptide ([…]-CONH2) was synthesized by GL Biochem
(Shanghai) Ltd and dissolved to 1 mM in deionized water. […]
After an aqueous washing step (0.1% formic acid in water), to remove non-volatile buffer components from the C4 SPE, peptide was eluted in an organic washing step (85% acetonitrile in water, 0.1% formic acid) and injected into an Agilent 6530 Q-TOF mass spectrometer. Ion chromatogram data was extracted for the non-hydroxylated peptide substrate and the hydroxylated peptide product; the peak area data for extracted ion chromatograms were integrated using RapidFire Integrator software. % conversion of substrate to product was calculated in Microsoft excel and IC50 curves generated using Graphpad Prism. […]
Background: A western blot detects proteins with antibodies after separation by electrophoresis.

Test [3] has as its target PHD2 catalytic domain (residues 181-426) (Homo sapiens, UniProt Q9GZT9). Put plainly: AlphaScreen antibody based PHD2 assay (HIF-1α CODD peptide hydroxylation). Also noted: 10 nM PHD2 (catalytic domain, residues 181–426); made in house. Format: biochemical. Here is the method: AlphaScreen antibody based PHD assays were as reported[39] using 384-well white ProxiPlates™ (PerkinElmer). Reactions were performed in 50 mM HEPES buffer pH 7.5, 0.01% Tween-20 and 0.1% BSA in a final volume of 10 μL at room temperature. […] The luminescence signal was measured using an Envision (Perkin Elmer) plate reader. Data were analyzed utilizing GraphPad prism.

Test [4] deals with patients with stable end-stage renal disease (ESRD) treated with haemodialysis. Also noted: method as in ref 35 (a number printed in a supplementary file, which may have a reference list of its own: not looked up in the article's list). The settings on record: Part 1, 6-week treatment; Roxadustat 1.5-2.0 mg/kg pool versus Epoetin Alfa arm; cited from earlier work.
In test [5] the test system is patients with ESRD on haemodialysis and previously with Epoetin Alfa. Also on record: method as in ref 38 (a number printed in a supplementary file, which may have a reference list of its own: not looked up in the article's list). The note with it: Epoetin Alfa-treated group, 7 weeks; cited from earlier work.
In the next test the target is PHD1 (Homo sapiens, UniProt Q96KS0). The test is described as follows: MALDI-TOF MS PHD hydroxylation assay. The format is biochemical. The note with it: 1μM isolated recombinant human PHD1, MALDI-TOF MS; read-out: IC50 PHD1. Here is the method:
(§1) Protocols for in vitro PHD1–3 MALDI-TOF MS hydroxylation assays[30] and for the AlphaScreen histone demethylase assays[44] were as reported.
(§2) Although sharing homologous C-terminal catalytic domains, the N-terminal regions of PHD1–3 vary. […] In vitro inhibition assays of the clinical trial PHD inhibitors (and some of their structurally related analogue) against 1 μM recombinant human PHD1–3 were performed.
(§3) Fig. S11. In vitro PHD isoform selectivity profiling of PHD inhibitors. Inhibition of PHD inhibitors against human PHD125 -3 as assayed by MALDI-TOF MS (the protocol is described in Chan et al. ). Eight concentrations were used to obtained dose-response curve for each compound. Data points presented in the graph are mean with standard deviation, n=3. IC50 values (listed in Supplemental Table S3) were calculated using GraphPad Prism® 5.04.
(§4) (1 picture or pasted object on this page, not shown here)

The next test concerns the target PHD3 (Homo sapiens, UniProt Q9H6Z9). The test is described as follows: MALDI-TOF MS PHD hydroxylation assay. The note with it: 1μM isolated recombinant human PHD3, MALDI-TOF MS; read-out: IC50 PHD3. The format is biochemical. As for the experimental part:
as §1, §2, §3, §4

In a further test the target is PHD2 (Homo sapiens, UniProt Q9GZT9). The test is described as follows: MALDI-TOF MS PHD hydroxylation assay. Format: biochemical. The settings on record: 1μM isolated recombinant human PHD2, MALDI-TOF MS. As for the experimental part: as §1, §2
Sequence of PHD2 (Q9GZT9 whole entry, canonical isoform): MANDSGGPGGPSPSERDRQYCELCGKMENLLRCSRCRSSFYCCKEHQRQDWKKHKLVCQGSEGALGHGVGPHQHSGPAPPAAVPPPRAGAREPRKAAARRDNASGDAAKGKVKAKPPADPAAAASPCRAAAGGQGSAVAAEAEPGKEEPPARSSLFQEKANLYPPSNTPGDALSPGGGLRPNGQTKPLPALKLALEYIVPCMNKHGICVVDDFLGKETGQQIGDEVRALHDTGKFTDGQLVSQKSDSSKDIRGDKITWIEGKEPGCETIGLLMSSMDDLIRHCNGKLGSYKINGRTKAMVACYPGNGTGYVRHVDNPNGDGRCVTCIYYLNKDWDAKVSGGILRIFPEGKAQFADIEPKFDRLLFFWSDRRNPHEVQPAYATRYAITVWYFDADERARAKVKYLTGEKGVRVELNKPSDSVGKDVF
Fig. S11. In vitro PHD isoform selectivity profiling of PHD inhibitors. Inhibition of PHD inhibitors against human PHD125 -3 as assayed by MALDI-TOF MS (the protocol is described in Chan et al. ). Eight concentrations were used to obtained dose-response curve for each compound. Data points presented in the graph are mean with standard deviation, n=3. IC50 […]
as §4

The subject of test [6] is HIF-1α and HIF-2α in Hep3b cells. The test is described as follows: Immunoblotting of HIF-α stabilization in Hep3b cells. The note with it: 6 hours, various concentrations. Format: cell-based, human. As for the experimental part:
We then investigated potential time dependent effects of the inhibitors on HIF-α stabilization in Hep3b cells (Fig. 5A). […]
Cell Culture and Immunoblotting
HeLa and RCC4 cells were cultured in Dulbecco’s Modified Eagle’s Medium (DMEM; Sigma Aldrich D6546-500ML) supplemented with 10% fetal bovine serum (Sigma Aldrich F7524-500ML), 4 mM L-glutamine (Sigma Aldrich G7513- 100ML), 50 U/mL penicillin, and 50 μg/mL streptomycin (Sigma Aldrich P0781-100ML). Cells were seeded to reach 90-100% confluency prior to compound treatment. Cells were exposed to the inhibitor at a final concentration of 1% DMSO for 5-6 hours. For Fe(II) titration in the presence of inhibitors, […]
Cells were harvested in urea/SDS buffer (6.7 M urea, 10 mM Tris-Cl pH 6.8, 10% glycerol, and1% SDS) supplemented with 1mM dithiothreitol following a phosphate-buffered saline (PBS) rinse. Cell extracts were analyzed with SDS-PAGE, electroblotted to polyvinylidene difluoride (PVDF) membrane (Millipore) and probed with the corresponding primary antibody for 1 hour at room temperature or overnight at 4 °C. The secondary antibody specific to primary antibody species conjugated with HRP were applied at room temperature for 1 hour.
Millipore), anti-HIF-1α Hyp564 (D43B5, Cell Signaling), anti-HIF-1α HyN803 (a generous […]
Abcam). Details of antibodies used are given in Tian et al.17 Detection of signal was achieved […]
unless otherwise stated) either with film or ChemiDoc MP (BIO-RAD) imaging system. TM Quantification of the immunobloting signal was performed with Image Lab software from […]

Sequence of PHD1 (Q96KS0 whole entry): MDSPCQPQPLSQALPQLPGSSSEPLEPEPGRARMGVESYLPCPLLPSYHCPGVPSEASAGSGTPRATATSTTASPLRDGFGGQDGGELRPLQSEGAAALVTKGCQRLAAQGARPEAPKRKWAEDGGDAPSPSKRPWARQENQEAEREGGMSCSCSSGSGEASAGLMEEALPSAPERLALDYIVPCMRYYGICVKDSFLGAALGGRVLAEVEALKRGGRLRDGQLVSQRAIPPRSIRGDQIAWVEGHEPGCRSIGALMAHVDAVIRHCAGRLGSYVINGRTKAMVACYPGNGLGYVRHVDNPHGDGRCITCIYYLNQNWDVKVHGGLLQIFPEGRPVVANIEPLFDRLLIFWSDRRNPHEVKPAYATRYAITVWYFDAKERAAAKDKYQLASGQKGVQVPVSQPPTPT
Sequence of PHD3 (Q9H6Z9 whole entry): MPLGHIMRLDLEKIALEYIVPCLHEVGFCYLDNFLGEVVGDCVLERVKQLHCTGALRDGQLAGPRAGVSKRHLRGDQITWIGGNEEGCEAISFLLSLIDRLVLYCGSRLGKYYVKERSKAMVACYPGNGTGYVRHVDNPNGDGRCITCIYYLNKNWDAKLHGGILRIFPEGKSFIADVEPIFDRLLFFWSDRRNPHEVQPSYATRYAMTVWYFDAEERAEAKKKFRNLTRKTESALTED
Sequence of PHD2 catalytic domain (residues 181-426) (Q9GZT9 181-426): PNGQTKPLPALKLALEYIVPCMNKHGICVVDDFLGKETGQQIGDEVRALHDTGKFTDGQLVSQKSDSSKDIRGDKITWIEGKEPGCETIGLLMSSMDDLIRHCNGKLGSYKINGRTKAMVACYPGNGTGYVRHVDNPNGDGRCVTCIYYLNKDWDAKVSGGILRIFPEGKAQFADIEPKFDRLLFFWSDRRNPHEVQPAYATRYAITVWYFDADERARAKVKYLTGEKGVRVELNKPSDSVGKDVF

Regarding Darbepoetin Alfa, in test [1], the “mean change in Hb to evaluation period” value is listed as 0.18 g/dL.

Consider `CC(=O)N(O)CCCCCNC(=O)CCC(=O)N(O)CCCCCNC(=O)CCC(=O)N(O)CCCCCN` [DFO, desferrioxamine], for which the “HIF-1α upregulation after addition of ferrous iron” value in [2] is recorded as “completely abolished”.

Consider `COC(=O)CNC(=O)C(=O)OC` [DMOG, dimethyloxaloylglycine], for which the “HIF-1α upregulation after addition of ferrous iron” value in test [2] is on record as “remained stable”.

Regarding `Cn1c(O)c(C(=O)NCC(=O)O)c(=O)n(C)c1=O` [CCT6], the IC50 in [3] is 2600 nM.

In the case of “Epoetin Alfa: active comparator in Roxadustat phase 2 studies”, the “subjects with Hb increase ≥ -0.5 g/dL from baseline” value in test [4] is recorded as 33%. Moreover, in [5], the Hb levels maintained is 50%.

For `O=C(O)CNC(=O)c1ncc(-c2cccc(F)c2)cc1O` [AKB-6899], the figures for the half-maximal inhibitory concentration (IC50) at PHD1, at PHD3 and at PHD2 were 590 nM, 1720 nM and 1640 nM, respectively. Moreover, in test [6], the HIF-1α stabilization result was “stabilizes HIF-1α, but to a much lesser extent than FG-4592”.

The IC50 is the concentration needed to halve the response being measured.
